Values quoted from earlier work in patent publication US7183291B2 (Council of Scientific and Industrial Research, priority 1999, dated 2007).

What was measured:
[1] = system: rodent malaria; conditions: in vivo; cited from earlier work
[2] = system: erythrocytes; conditions: cited from earlier work
[3] = system: P. cynomolgi B. infection; conditions: 1 mg/kg×7 days; cited from earlier work
[4] = system: P. cynomolgi B. infection; conditions: 3.16 mg/kg×3 doses; monkeys; cited from earlier work
[5] = system: rodent malaria; conditions: in vivo; cited from earlier work; remark: listed apart in the source
[6] = system: rodent malaria; conditions: in vivo; cited from earlier work; remark: listed apart in the source
[7] = system: rodent malaria; conditions: given directly to the insect; cited from earlier work

Molecule | gametocytocidal activity [1] | blood schizontocidal activity [5] | further results
COc1cc(NC(C)CCC(=O)O)c2ncccc2c1 (stereo not drawn) [formula (12), 8-(3-carboxy-1-methylpropylamino)-6-methoxy quinoline] | inactive |  | methemoglobin formation in vitro ([2]; in vitro): does not cause methemoglobin formation
COc1cc(NC(C)CCCNC2=C(C(C)=O)CCO2)c2ncccc2c1 (stereo not drawn) [N^1-(3-acetyl-4,5-dihydro-2-furanyl)-N^4-(6-methoxy-8-quinolinyl)-1,4-pentanediamine] |  |  | anti-relapse (radical curative) activity [3]: exerts anti-relapse (radical curative) activity; causal prophylactic activity [4]: causal prophylactic activity
COc1cc(NC(C)CCCN)c2ncccc2c1O (stereo not drawn) [formula (3), 5-hydroxy-6-methoxy-8-(4-amino-1-methylbutylamino) quinoline] | inactive | highly active | oxidation of oxyhemoglobin (HbO2) to methemoglobin (Met Hb) and of reduced glutathione (GSH) [2]: cause oxidation
Nc1cc(O)c(O)c2cccnc12 [formula (11), 5,6-dihydroxy-8-aminoquinoline] |  | no significant activity | tissue schizontoidal effect relative to primaquine [6]: two to three times more active than primaquine; oxidation of oxyhemoglobin (HbO2) to methemoglobin (Met Hb) and of reduced glutathione (GSH) [2]: cause oxidation; direct sporontocidal activity [7]: directly sporontocidal
Desmethyl primaquine [formula (5)] | inactive | little | 
COC1(O)C=C(NC(C)CCCN)c2ncccc2C1O (stereo not drawn) [formula (4), 5,6-dihydroxy-6-methoxy-8-(4-amino-1-methylbutylamino) quinoline] | only a slight gametocytocidal activity | highly active | 
COc1cc(N)c2ncccc2c1 [formula (10), 6-methoxy-8-aminoquinoline] |  | no significant activity | tissue schizontoidal effect relative to primaquine [6]: two to three times more active than primaquine; direct sporontocidal activity [7]: directly sporontocidal
